Data published in patent US4522943A, “Chemical compounds” (Bristol-Myers Company, priority 1982, dated 1985).

Legend:
[1] = system: gastric acid secretion; experiment: Gastric Antisecretory Activity in the Heidenhain Pouch Dog; format: in vivo, female dogs; conditions: for Potency Ratio [cimetidine = 1.0] (INTRAVENOUS) / Potency Ratio [cimetidine = 1.0] (ORAL): relative to cimetidine = 1.0
Procedure: The dosage of the compounds of this invention will depend not only on such factors as the weight of the patient, but also on the degree of gastric acid inhibition desired and the potency of the particular compound being utilized. The decision as to the particular dosage to be employed is within the discretion of the physician. […] The usual human adult oral dose of cimetidine is 300 mg, given four times a day. The usual human adult starting oral dosages of the compounds of this invention are readily determined from their oral ED50 in this same test. […] Similar calculations may be made for iv dosages. These starting dosages (and the number of times administered per day) may, of course, be varied by titration of the dosage to the particular circumstances of the specific patient. […] The active ingredient will preferably be administered in equal doses from one to four times a day.
(§1) Med Res., 3, 86 (1975). […] Two of the standard animal models for determining gastric antisecretory activity of histamaine H2 -antagonists are the Gastric Fistula Rat and the Heidenhain Pouch Dog.
Determination of Gastric Antisecretory Activity in the Heidenhain Pouch Dog
Prior to surgery, hematology and blood chemistry profiles are obtained and an assessment made as to the general health of selected female dogs. Dogs are vaccinated with Tissue Vax 5 (DHLP-Pitman-Moore) and housed in general animal quarters for four weeks' observation so incipient diseases may become apparent. Dogs are fasted with water ad libitium 24 hours prior to surgery.
Anesthesia is induced with Sodium Pentothal (Abbott) 25-30 mg/kg iv. Subsequent anesthesia is maintained with methoxyflurane (Pitman-Moore). A mid-line linea alba incision from xiphoid to umbilicus provides good exposure and ease of closure. The stomach is pulled up into the operative field, the greater curvature stretched out at multiple points and clamps placed along the selected line of incision. The pouch is made from the corpus of the stomach so that true parietal cell juice is obtained. About 30% of the corpus volume is resected. The cannula is made of light-weight,biologically-inert material such as nylon or Delrin with dimensions and attachments after DeVito and Harkins [J. Appl. Physiol., 14, 138 (1959)]. Post operatively, dogs are medicated with antibiotics and an analgesic. They are allowed 2-3 months for recovery. Experiments are carried out in the following way: Dogs are fasted overnight (~18 hours) with water ad libitum prior to each experiment. The dogs are placed in a sling and a saphenous vein cannulated for drug administration. Histamine as the base (100 μg/kg/hr and chlorpheniramine maleate (0.25 mg/kg/hr) are infused continuously (in a volume of 6 ml/hr) with a Harvard infusion pump.
Ninety minutes' infusion are allowed for the dogs to reach a steady state of acid output. At this time the drug or normal saline (control) is administered concomitantly with the secretagogue in a volume of 0.5 ml/kg over a 30 second period. When oral studies are to be carried out, the drug is administered via gastric gavage in a volume of 5 ml/kg. Infusion of the secretagogue is continued and 15 minute samples of the gastric juice are taken for 4.5 hours. Each sample is measured to the nearest 0.5 ml and titratable acidity is determined by titrating a 1 ml sample to pH 7.0 with 0.2N NaOH, using an Autoburet and an electrometric pH meter (Radiometer). Titratable acid output is calculated in microequivalents by multiplying the volume in milliliters by the acid concentration in milliequivalents per liter.
Results are expressed as percent inhibition relative to control readings. Dose response curves are constructed and ED50 values are calculated by regression analyses. From 3 to 5 dogs are used at each dose level and a minimum of three dosage levels are utilized for determination of a dose response curve.

[2] = system: histamine H2-receptor; conditions: relative to another H2-antagonist; cited from earlier work
[3] = peptic ulcer disease, clinical evaluation; cited from earlier work
[4] = system: gastric secretion; conditions: in animals, including man; cited from earlier work
[5] = in vivo; cited from earlier work
[6] = system: gastric acid secretion; experiment: Gastric Antisecretory Activity in the Gastric Fistula Rat; format: in vivo, Male Long Evans rats; conditions: sc, relative to cimetidine = 1.0, 95% confidence limits on following line
Procedure: as §1
Determination of Gastric Antisecretory Activity in the Gastric Fistula Rat
Male Long Evans rats weighing about 240-260 grams at the time of cannula implantation are used. The design and implantation of the stainless steel cannula into the anterior wall of the fore-stomach are carried out essentially as described by Pare et al. [Laboratory Animal Science, 27, 244 (1977)]. The fistula components are designed and the operative procedure is carried out exactly as described in the above reference. Post operatively the animals are individually housed in solid bottom cages with sawdust and are allowed food and water ad libitum throughout the entire recovery period. Animals are not used for test purposes for at least 15 days after the operative procedure.
The animals are fasted but allowed water ad libitum for 20 hours before the testing procedure is to begin. […]
Titratable acid output is calculated in microequivalents by multiplying the volume in milliliters by the acid concentration in milliequivalents per liter.
Results are expressed as percent inhibition relative to control readings. Dose response curves are constructed and ED50 values are calculated by regression analyses. […]

Question: Which “Potency Ratio [cimetidine = 1.0] (INTRAVENOUS)” value (shortened to “Potency Ratio … (INTRAVENOUS)”) [1] does the source give for CN(C)Cc1cccc(OCCCNc2c(N)c(=O)c2=O)c1 [Example 9, 1-Amino-2-[3-(3-dimethylaminomethylphenoxy)propylamino]cyclobutene-3,4-dion] here?
Answer: ~ 40

Question: And the “Potency Ratio [cimetidine = 1.0] (ORAL)” value ([1]; oral)?
Answer: ~ 20

Question: With CN(C)Cc1ccc(CSCCNc2c(N)c(=O)c2=O)o1 [Example 2, 1-Amino-2-{2-[(5-dimethylaminomethyl-2-furyl)metylthio]ethylamino}cyclobutene-3,4-dione] as the compound, how does the “Potency Ratio … (INTRAVENOUS)” value [1] read?
Answer: ~ 20

Question: With Nc1c(NCCCOc2cccc(CN3CCCCCC3)c2)c(=O)c1=O [Example 10i, 1-amino-2-[3-(3-hexamethyleneiminomethylphenoxy)propylamino]cyclobutene-3,4-dione] as the compound, how does the “Potency Ratio … (INTRAVENOUS)” value [1] read?
Answer: > 40

Question: Which “H2-antagonist potency / effectiveness” value [2] does the source give for CNC(=S)NCCSCc1nc[nH]c1C [Metiamide] here?
Answer: more potent than burimamide

Question: For CNC(=NC#N)NCCSCc1nc[nH]c1C [Cimetidine], which “ED50 (ORAL)” value ([1]; oral, histamine-stimulated, 95% confidence limits on following line) is on record?
Answer: 3.29 µmol/kg

Question: And the “H2-antagonist potency / effectiveness” value [2]?
Answer: as effective an H2 -antagonist as metiamide

Question: And the clinical effectiveness [3]?
Answer: effective therapeutic agent in the treatment of peptic ulcer disease

Question: For Nc1c(NCCCOc2cccc(CN3CCCCC3)c2)c(=O)c1=O [Example 1, 1-Amino-2-[3-(3-piperidinomethylphenoxy)propylamino]cyclobutene-3,4-dione], which “Potency Ratio … (INTRAVENOUS)” value [1] is on record?
Answer: 87

Question: What about the “Potency Ratio [cimetidine = 1.0] (ORAL)” value ([1]; oral) of the same compound?
Answer: 25

Question: What does the source list for CNC(=S)NCCCCc1cnc[nH]1 [Burimamide]?
Answer: inhibits gastric secretion [4]: inhibits gastric secretion; oral absorption [5]: poor

Question: For CN(C)Cc1ccc(CSCCNc2c(N)c(=O)c2=O)s1 [Example 3, 1-Amino-2-{2-[(5-dimethylaminomethyl-2-thienyl)methylthio]ethylamino}cyclobutene-3,4-dione], which “Potency Ratio [cimetidine = 1.0]” value [6] is on record?
Answer: ~ 1
